The NIST ThermoML archive (doi:10.1021/je700521t)

Assay: xn = mol fraction of the nth substance listed
Conditions: 101 kPa, Liquid

CCCCn1cc[n+](C)c1.[O-][Cl+3]([O-])([O-])[O-] [1-butyl-3-methylimidazolium perchlorate] + CCO
mass density [kg/m3], Vibrating tube method
Conditions	x2 = 0.1	x2 = 0.165	x2 = 0.291	x2 = 0.401	x2 = 0.479	x2 = 0.592	x2 = 0.637	x2 = 0.79	x2 = 0.86
283.15 K	1249.3	1239.4	1216.6	1192	1173.6	–	–	–	–
288.15 K	1245.7	1235.7	1212.8	1188.3	1169.8	–	–	–	–
293.15 K	1242.1	1231.9	1208.9	1184.6	1166.1	1129.6	1110.4	1022.6	960.5
298.15 K	1238.6	1228	1205	1180.9	1162.2	1125.8	1104.6	1018.7	956.7
303.15 K	1235.1	1224.1	1199.8	1177.2	1158.3	1122	1102.7	1014.8	952.7
308.15 K	1231.7	1220.3	1195.8	1173.6	–	1117.5	1100.6	1011	948.7
313.15 K	1228.2	1216.2	1193.1	1169.9	–	1114.8	1096.7	1007	944.6
318.15 K	1224.7	1211.2	1188.9	–	–	–	–	–	–
323.15 K	1221.3	1207.2	1184.7	–	–	–	–	–	–
328.15 K	1217.8	1201	1180.1	–	–	–	–	–	–
333.15 K	1214.4	1198.7	1175.2	–	–	–	–	–	–
338.15 K	1211	1195.4	1169.3	–	–	–	–	–	–
343.15 K	1207.5	1190.3	1159.4	–	–	–	–	–	–

viscosity [mPa·s]
Conditions	x2 = 0.1	x2 = 0.165	x2 = 0.291	x2 = 0.401	x2 = 0.479	x2 = 0.592	x2 = 0.637	x2 = 0.79	x2 = 0.86
283.15 K	255.52	181.83	87.42	50.26	35.48	–	–	–	–
288.15 K	188.52	136.86	68.04	40.89	29.17	–	–	–	–
293.15 K	142.2	105.92	54.9	33.49	24.41	12.98	11.66	5.38	4.96
298.15 K	109.99	83.35	44.84	27.92	20.67	11.13	10.06	4.62	4.22
303.15 K	86.43	66.48	36.75	23.38	17.56	9.6	8.71	4.03	3.59
308.15 K	69.74	54.25	30.63	20.06	–	8.48	7.52	3.74	3.16
313.15 K	56.98	44.76	26.13	17.38	–	7.43	6.66	3.46	2.8
318.15 K	46.98	37.2	22.14	–	–	–	–	–	–
323.15 K	39.45	31.56	19.51	–	–	–	–	–	–
328.15 K	33.69	27.02	17.16	–	–	–	–	–	–
333.15 K	28.86	23.5	15.43	–	–	–	–	–	–
338.15 K	24.94	20.45	13.79	–	–	–	–	–	–
343.15 K	21.69	18.12	–	–	–	–	–	–	–

CCCCCCCC[n+]1ccn(C)c1.F[B-](F)(F)F [1-methyl-3-octylimidazolium tetrafluoroborate] + CCO
Conditions	mass density [kg/m3]	viscosity [mPa·s]
283.15 K, x2 = 0.081	1122.9	718.47
283.15 K, x2 = 0.161	1118	492.73
283.15 K, x2 = 0.315	1098.7	167.49
283.15 K, x2 = 0.511	1064.7	51.57
283.15 K, x2 = 0.612	1039.7	27.12
283.15 K, x2 = 0.753	991.3	12.45
288.15 K, x2 = 0.081	1119.4	507.18
288.15 K, x2 = 0.161	1114.5	354.89
288.15 K, x2 = 0.315	1095.2	127.69
288.15 K, x2 = 0.511	1061.3	41.43
288.15 K, x2 = 0.612	1036	22.05
288.15 K, x2 = 0.753	987.5	10.36
293.15 K, x2 = 0.081	1115.9	366.59
293.15 K, x2 = 0.161	1111	261.54
293.15 K, x2 = 0.315	1091.8	98.92
293.15 K, x2 = 0.511	1057.8	35.28
293.15 K, x2 = 0.612	1032.2	18.24
293.15 K, x2 = 0.753	983.6	8.79
298.15 K, x2 = 0.081	1112.4	268.93
298.15 K, x2 = 0.161	1107.5	194.74
298.15 K, x2 = 0.315	1088.3	78.63
298.15 K, x2 = 0.511	1054.2	28.87
298.15 K, x2 = 0.612	1028.4	15.35
298.15 K, x2 = 0.753	979.7	7.53
303.15 K, x2 = 0.081	1108.9	203.35
303.15 K, x2 = 0.161	1104	150.36
303.15 K, x2 = 0.315	1084.8	63.33
303.15 K, x2 = 0.511	1050.6	23.94
303.15 K, x2 = 0.612	1024.7	12.98
303.15 K, x2 = 0.753	975.7	6.51
308.15 K, x2 = 0.081	1105.5	156.29
308.15 K, x2 = 0.161	1100.7	117.36
308.15 K, x2 = 0.315	1081.3	51.59
308.15 K, x2 = 0.511	1046.9	20.13
308.15 K, x2 = 0.612	1020.9	11.16
308.15 K, x2 = 0.753	971.8	5.66
313.15 K, x2 = 0.081	1102.2	123.27
313.15 K, x2 = 0.161	1097.3	93.2
313.15 K, x2 = 0.315	1077.8	42.48
313.15 K, x2 = 0.511	1043.2	17.09
313.15 K, x2 = 0.612	1017.2	9.61
313.15 K, x2 = 0.753	968	4.96
318.15 K, x2 = 0.081	1098.8	97.69
318.15 K, x2 = 0.161	1093.9	75.37
318.15 K, x2 = 0.315	1074.3	35.84
318.15 K, x2 = 0.511	1039.3	14.67
318.15 K, x2 = 0.612	1013.4	8.39
318.15 K, x2 = 0.753	964.1	4.38
323.15 K, x2 = 0.081	1095.4	79.43
323.15 K, x2 = 0.161	1090.5	61.66
323.15 K, x2 = 0.315	1070.9	30.38
323.15 K, x2 = 0.511	1034.9	12.72
323.15 K, x2 = 0.612	1009.7	7.39
323.15 K, x2 = 0.753	960.2	3.89
328.15 K, x2 = 0.081	1092.1	65.03
328.15 K, x2 = 0.161	1087.1	51.12
328.15 K, x2 = 0.315	1067.4	26.04
328.15 K, x2 = 0.511	1030.3	11.1
328.15 K, x2 = 0.612	1005.9	6.55
328.15 K, x2 = 0.753	956.4	3.5
333.15 K, x2 = 0.081	1088.7	54.15
333.15 K, x2 = 0.161	1083.7	42.99
333.15 K, x2 = 0.315	1064	22.54
333.15 K, x2 = 0.511	1028.7	9.77
333.15 K, x2 = 0.612	1002.2	5.8
333.15 K, x2 = 0.753	952.5	3.17
338.15 K, x2 = 0.081	1085.4	45.46
338.15 K, x2 = 0.161	1080.3	36.47
338.15 K, x2 = 0.315	1060.5	19.73
338.15 K, x2 = 0.511	1025.2	8.65
338.15 K, x2 = 0.612	998.5	5.18
338.15 K, x2 = 0.753	948.6	2.89
343.15 K, x2 = 0.081	1082.1	39.03
343.15 K, x2 = 0.161	1077	31.51
343.15 K, x2 = 0.315	1057.1	17.42
343.15 K, x2 = 0.511	1021.3	7.74
343.15 K, x2 = 0.612	994.7	4.7
343.15 K, x2 = 0.753	944.7	2.65
